Results taken from the SangsterLogP compilation.

Legend:
[1] = method code SF-AS, from DOI: 10.1002/chin.199416148, PMID: 8117185
[2] = method code SF, from Yoshimoto, M. (1982). Quantitative structure-activity relationships and structure patterns of drugs. SankyoÌ„ KenkyuÌ„jo nenpoÌ„ (Annual report of Sankyo Research Laboratories), 34, 1-38.
[3] = method code SF-AS, from DOI: 10.1002/jps.2600710122
[4] = method code SF-HPLC, from PMID: 2780588
[5] = method code SF-HPLC, from DOI: 10.1016/0045-6535(86)90532-1; settings: pH 6.5
[6] = method code SF-HPLC, from PMID: 9554875; settings: pH 6.8
[7] = not given; remark: listed apart in the source
[8] = method code SF-HPLC, from DOI: 10.1007/s00216-006-0868-5, PMID: 17082876
[9] = not given; remark: listed apart in the source
[10] = method code SF-AS, from PMID: 10944786; settings: pH 7.0
[11] = method code SF-NMR, from DOI: 10.1002/jps.2600751016, PMID: 3795031
[12] = method code SF-AS, from DOI: 10.1021/jm00253a014, PMID: 4151967; settings: pH 7.4
[13] = not given; remark: listed apart in the source
[14] = not given; remark: listed apart in the source
[15] = method code SF-AS, from DOI: 10.1021/jm00291a017, PMID: 5140011
[16] = not given; remark: listed apart in the source
[17] = method code SF, from DOI: 10.1016/s0968-0896(00)00025-0, PMID: 10882003
[18] = method code SF-AS, from DOI: 10.1016/j.ejmech.2011.02.056, PMID: 21420207
[19] = method code SF-AS, from DOI: 10.1007/s001289900158, PMID: 8661463

O=C(CCN1CCCCC1)CN1C(=O)CC(c2ccc(Cl)cc2)C1=O (stereo unspecified)
logP [1]: 2.23

OCCCCCCO
logP: -0.02

COC1(NC(=O)CSc2nnc(C)s2)C(=O)N2C(C(=O)O)=C(COC(N)=O)CSC21 (stereo unspecified)
logP [2]: -2.16

O=C(Nc1n[nH]c(NC(=O)C(F)(F)F)n1)C(F)(F)F
logP [3]: 0.62

O=C(CCN1CCCCC1)CN1C(=O)C2CC=CCC2C1=O (stereo unspecified)
logP [1]: 1.44

CCCCCCCCC(=O)NCc1cccc(OC)c1
logP [4]: 3.31

CCNC(=S)NCC
logD [5]: 0.57

Cc1cccc2c1OP(=O)(OCC1C=CC(n3cc(C)c(=O)[nH]c3=O)O1)OC2 (stereo unspecified)
logD [6]: 0.71

COc1ccc(NC(=O)c2cc(-c3sc(NC(=O)C(C)(C)C)nc3C)n(-c3ccc(Br)cc3)n2)cc1
logP [7]: 5.17

CCCCCSCC(=O)NC1(OC)C(=O)N2C(C(=O)O)=C(COC(N)=O)CSC21 (stereo unspecified)
logP [2]: -1.31

Cc1ccc(S(=O)(=O)Cl)cc1
logP [8]: 3.25

CCCCC(N)=O
logP: 0.37

CCCCCCCC/C=C\CCCCCCCC(=O)OCC(COC(=O)C(C)c1ccc2cc(OC)ccc2c1)OC(=O)CCCCCCC/C=C\CCCCCCCC (stereo unspecified)
logP [9]: 6.39

CCCCOc1ccc(NC(=O)OCN2CCCCC2)cc1
logD [10]: 3.04

CC(C(=O)CCN(C)C)N1C(=O)C2CC=CCC2C1=O (stereo unspecified)
logP [1]: 0.77

COc1ccc(NC(=O)c2cc(-c3sc(NC(=O)C(C)(C)C)nc3C)nn2Cc2ccc(Cl)cc2OC)cc1
logP [7]: 5.33

CN(C)C(=S)N(C)C
logD [5]: 0.49

CC(O)CC(F)(F)F (stereo unspecified)
logP [11]: 0.71

CCn1c(C)c(COC(N)=O)c2c1C(=O)C(C)=C(OC)C2=O
logD [12]: 1.81

CCNC(N)=S
logD [5]: -0.21

c1ccc2cc3cc4ccccc4cc3cc2c1
logP [13]: 5.76

Cc1cccc2sc3nncn3c12
logP [14]: 2.07

O=C1C(Cl)=C(Cl)C(=O)C(Cl)=C1Cl
logP [8]: 2.19

CC(CCO)CC(F)(F)F (stereo unspecified)
logP [11]: 1.61

O=C(Nc1n[nH]c(NC(=O)c2ccc([N+](=O)[O-])cc2)n1)c1ccc([N+](=O)[O-])cc1
logP [3]: 0.55

CCCCOc1ccccc1NC(=O)OCN1CCCCC1
logD [10]: 2.39

S=C1CCCCCCCN1
logP [15]: 1.44

CCCCSCC(=O)NC1(OC)C(=O)N2C(C(=O)O)=C(COC(N)=O)CSC21 (stereo unspecified)
logP [2]: -1.57

Cc1ccc2c(c1)COP(=O)(OCC1C=CC(n3cc(C)c(=O)[nH]c3=O)O1)O2 (stereo unspecified)
logD [6]: 0.73

CCn1c(C)c(COC(=O)NCCO)c2c1C(=O)C(C)=C(OC)C2=O
logD [12]: 1.64

OCCO
logP: -1.21

CCCSCC(=O)NC1(OC)C(=O)N2C(C(=O)O)=C(COC(N)=O)CSC21 (stereo unspecified)
logP [2]: -1.76

CC(NCCC(c1ccccc1)c1ccccc1)c1ccccc1 (stereo unspecified)
logP [16]: 4.89

COc1ccc2c(c1)COP(=O)(OCC1C=CC(n3cc(C)c(=O)[nH]c3=O)O1)O2 (stereo unspecified)
logD [6]: 0.36

S=C1CCCCCCN1
logP [15]: 1

CCCCCCCCCCCCCCCC(=O)OCC(COC(=O)C(C)c1ccc2cc(OC)ccc2c1)OC(=O)CCCCCCCCCCCCCCC (stereo unspecified)
logP [9]: 6.28

C=Cc1ccccc1C=C
logP [8]: 3.49

S=C1CCCCN1
logP [15]: 0.13

CCCCCCCCCCCNC(=O)Cc1ccc(O)c(OC)c1
logP [4]: 3.74

CCC(=O)Nc1n[nH]c(NC(=O)CC)n1
logP [3]: -0.07

Cc1cccc(=O)[nH]1
logP [17]: -0.04

CCCOc1ccc(NC(=O)OCN2CCCCC2)cc1
logD [10]: 2.42

CN1CCN(CCCN2c3ccccc3Sc3ccc(Cl)cc32)CC1
logP [16]: 4.79

CCCCCCCCC(=O)NCc1ccc(O)c(OC)c1
logP [4]: 2.96

CCOC(=O)c1cc(C#N)c(=O)[nH]c1C(F)(F)F
logP [17]: 2.08

COP(=O)(NC(C)=O)SC (stereo unspecified)
logP [14]: -0.46

O=C(Nc1ccccc1)C(=O)Nc1ccccc1
logP [8]: 2

O=C(CCN1CCCCC1)CN1C(=O)c2ccccc2C1=O
logP [1]: 0.86

CCCCCCCCCCCCCCCCCC(=O)N[C@H]1C[C@H](O[C@H]2C[C@](O)(C(=O)CO)Cc3c(O)c4c(c(O)c32)C(=O)c2c(OC)cccc2C4=O)O[C@@H](C)[C@H]1O
logP [18]: 2.17

CC1=C(N)C(=O)c2c(COC(N)=O)c3n(c2C1=O)CCC3O (stereo unspecified)
logD [12]: 0.64

Cc1cn(C2C=CC(COP3(=O)OCc4ccccc4O3)O2)c(=O)[nH]c1=O (stereo unspecified)
logD [6]: 0.28

Clc1ccnc(Cl)n1
logP [19]: 1.16

Cc1cc(C)c2c(c1)COP(=O)(OCC1C=CC(n3cc(C)c(=O)[nH]c3=O)O1)O2 (stereo unspecified)
logD [6]: 1.18

CCCOc1cccc(NC(=O)OCN2CCCCC2)c1
logD [10]: 2.6

S=C1CCCCCN1
logP [15]: 0.75

CCCC(=O)OCC(COC(=O)C(C)c1ccc2cc(OC)ccc2c1)OC(=O)CCC (stereo unspecified)
logP [9]: 4.84

CCc1ccc2cc3ccccc3cc2c1
logP [13]: 5.85

COc1cc(Cl)ccc1Cn1nc(-c2sc(NC(=O)C(C)(C)C)nc2C)cc1C(=O)N1CCOCC1
logP [7]: 4.1

CC(C(=O)CCN1CCCCC1)N1C(=O)C2CC=CCC2C1=O (stereo unspecified)
logP [1]: 1.55

C=CCn1nc(-c2sc(NC(=O)C(C)(C)C)nc2C)cc1C(=O)Nc1ccc(OC)cc1
logP [7]: 4.55

COC1=C(C)C(=O)c2c(c(COC(N)=O)c3n2CCC3OC(C)=O)C1=O (stereo unspecified)
logD [12]: 1.54

COC1=C(C)C(=O)c2c(c(COC(N)=O)c3n2CCC3)C1=O
logD [12]: 1.71

Cc1ccc2c(ccc3ccccc32)c1
logP [13]: 5.24

COC(N)=O
logP: -0.64

O=c1cccc(Cl)[nH]1
logD ([17]; pH 7.4): 0.78

COc1cc(CNC(=O)CCCC/C=C/C(C)C)ccc1O
logP [4]: 3.04

CCCCCCCCCCCCCCCCCCCC(=O)N[C@H]1C[C@H](O[C@H]2C[C@](O)(C(=O)CO)Cc3c(O)c4c(c(O)c32)C(=O)c2c(OC)cccc2C4=O)O[C@@H](C)[C@H]1O
logP [18]: 2.31

c1ccc2cc3cc4c(ccc5ccccc54)cc3cc2c1
logP [13]: 6.81

CCN(CC)c1nc(NN)nc(NN)n1
logP [19]: 1.22

CNC(=O)O/N=C/C(C)(C)SC
logP [14]: 1.19

CCSCCCCCCCCCCCC(=O)NC1CC(OC2CC(O)(C(=O)CO)Cc3c(O)c4c(c(O)c32)C(=O)c2c(OC)cccc2C4=O)OC(C)C1O (stereo unspecified)
logP [18]: 2

OCCCCCC(F)(F)F
logP [11]: 1.64

CCCC(=O)Nc1n[nH]c(NC(=O)CCC)n1
logP [3]: 0.79

CCCCCC(=O)OCC(CCOC(=O)c1ccc2cc(OC)ccc2c1)OC(=O)CCCCC (stereo unspecified)
logP [9]: 5.68

CCCOC(=O)NCCCN(C)C
logP [14]: 2.43

NNc1nc(NN)nc(N2CCOCC2)n1
logP [19]: 0.62

COC1(NC(=O)CSc2[nH]cnc3ncnc2-3)C(=O)N2C(C(=O)O)=C(COC(N)=O)CSC21 (stereo unspecified)
logP [2]: -1.99

CCCCCNC(=O)Cc1ccc(O)c(OC)c1
logP [4]: 1.67

CCN(CC)c1nc(Cl)nc(Cl)n1
logP [19]: 2.17

CCSc1ccc2c(c1)N(CCCN1CCN(C)CC1)c1ccccc1S2
logP [16]: 4.82

CCCCCCCCCC(=O)N[C@H]1C[C@H](O[C@H]2C[C@](O)(C(=O)CO)Cc3c(O)c4c(c(O)c32)C(=O)c2c(OC)cccc2C4=O)O[C@@H](C)[C@H]1O
logP [18]: 1.92

OCCCCC(F)(F)F
logP [11]: 1.15

COc1ccc2c(c1)N(CC(C)CN(C)C)c1ccccc1S2 (stereo unspecified)
logP [16]: 4.4

Cc1cccc2c1ccc1ccccc12
logP [13]: 5.08

OCCN1CCN(CCCN2c3ccccc3Sc3ccc(Cl)cc32)CC1
logP [16]: 4.25

CCCOc1ccccc1NC(=O)OCN1CCCCC1
logD [10]: 2.33

O=c1cccc[nH]1
logP [17]: -0.56

CN(C)C(N)=S
logD [5]: -0.43

CCCCCCCCCCCC(=O)OCC(COC(=O)C(C)c1ccc2cc(OC)ccc2c1)OC(=O)CCCCCCCCCCC (stereo unspecified)
logP [9]: 6.08

Cc1nc(NC(=O)C(C)(C)C)sc1-c1cc(C(=O)NCc2ccccc2)n(Cc2ccccc2)n1
logP [7]: 4.82

CCCCCCCCCCCCCC(=O)N[C@H]1C[C@H](O[C@H]2C[C@](O)(C(=O)CO)Cc3c(O)c4c(c(O)c32)C(=O)c2c(OC)cccc2C4=O)O[C@@H](C)[C@H]1O
logP [18]: 1.94
